Source: article PMC10054552, “Phototoxic Potential of Different DNA Intercalators for Skin Cancer Therapy: In Vitro Screening” (International Journal of Molecular Sciences, 2023)
Read-outs that look alike come from different tables or passages of the source.

What was measured:
[1] = test system: MET1 cells; assay: Cytotoxicity (resazurin cell viability) in MET1 cells; assay type: cell-based, human; conditions: Homo sapiens, MET-1, MET1 cells, 1.25-320 µM
Description: (§1) The MET1 SCC cell line (human squamous cell carcinoma) was obtained from Ximbio (London, UK), HaCaT (immortalized human keratinocytes cell line) was obtained from Addexbio (San Diego, CA, USA) and WM983b (human metastatic melanoma cell line) was obtained from Rockland (Pottstown, PA, USA). Cells were maintained in Dulbecco’s Modified Eagle Medium (DMEM) supplemented with 10% (v/v) fetal bovine serum (FBS) for MET1 and HaCaT and 5% (v/v) for WM983b cells, and Pen–Strep (penicillin 100 U/mL and streptomycin 100 µg/mL). Cells were cultivated in an incubator (Sanyo MCO-19AIC-UV) at 37 °C in a 5% CO2 humidified atmosphere.
First, 96-well plates were seeded with HaCaT and MET1 cells at a density of 20,000 cells/cm² and incubated for 24 h. After that period, the culture medium was replaced by culture medium containing different compounds: MB, AO, GV, QT, CUR, EGCG, PHE, NEO and BIPY. The compounds were diluted in culture medium using a range of concentrations of each compound from 1.25 µM to 320 µM (in quadruplicate). The medium was aspirated from the 96-well plate and replaced by the samples diluted in medium. Cells cultured with complete medium and cells cultured with medium supplemented with 0.2% (v/v) or 10% (v/v) of DMSO were used as negative (NC), solvent (SC) and positive controls (PC), respectively. The plates were incubated for 24 and 48 h, followed by evaluation of cell viability using a colorimetric assay. Cells containing samples were washed with PBS supplemented with calcium and magnesium; then, resazurin solution diluted in DMEM at 0.02 mg/mL was added. The medium containing resazurin was also dispensed in wells without cells, which were used as references. After 3 h of incubation, the absorbance was measured in a microplate reader (ELX800UV, Biotek Instruments) at wavelengths of 570 nm and 600 nm. The corrected absorbance was proportional to cell viability. Propagation of uncertainties was used to calculate the combined standard uncertainty. For the cytotoxicity study using WM983b cells, plates were seeded at a density of 40,000 cells/cm², and cells were treated only with MB and AO.

[2] = test system: WM983b cells; assay: Phototoxicity assay in WM983b cells (irradiation 2.5 J/cm², resazurin); assay type: cell-based; conditions: Homo sapiens, light or radiation study, treated 24 h
Description: as §1
For the phototoxicity studies, 96-well plates were seeded with MET1 cells at a density of 20,000 cells/cm², incubated overnight and treated for 24 h with MB, AO, GV, QT, CUR, EGCG, PHE, NEO and BIPY diluted in culture medium in a concentration range of 1.25 µM to 40 µM (in sextuplicate). […] Cells cultured with complete medium and cells cultured with medium supplemented with 0.2% (v/v) or 10% (v/v) of DMSO were used as negative (NC), solvent (SC) and positive control (PC), respectively. The plates were incubated for 24 h, followed by washing with PBS supplemented with calcium and magnesium. Afterwards, complete culture medium without phenol red was added, and the plates were irradiated from above and submitted to a dose of 2.5 J/cm² of irradiation emitted by different wavelength light sources coupled with a homemade irradiation system created in our laboratory. These light sources consisted of an equivalent 26 cm UV tubular lamp (254 nm) (Phillips TUV PLS 9W/2PHg) and a tricolor LED lamp (Led Grow Light Bulb E26/E27) with intensity peaks at 457 nm (blue light), 583 nm (yellow light) and 640 nm (red light) provided by 18, 18 and 28 LEDs, respectively, with dimensions of 3 × 3 mm^2. The irradiance values of light at 254, 457, 583 and 640 nm wavelengths were of 16.7, 55, 45 and 25 W/m^2, respectively. This experiment was performed in an incubator that was able to keep plates in a dark environment; therefore, the dark control plates were protected from any light source, as well as the others, with the exception of the irradiation that each one was submitted to. Plates were incubated for another 24 h, and finally, the resazurin assay was performed as previously described in Section 3.3. For the phototoxicity study using WM983b cells, plates were prepared at a cell density of 40,000 cells/cm², and cells were treated with MB and AO only.

CN(C)c1ccc2cc3ccc(N(C)C)cc3nc2c1 [Acridine orange, acridine orange]
IC50 ([1]; 24 h exposure, read-out: IC50 MET1 Cells 24 h): 15.1 µM | IC50 ([1]; 48 h exposure, read-out: IC50 MET1 Cells 48 h): 10.3 µM | IC50 ([2]; 457 nm light, 2.5 J/cm², read-out: IC50 irradiated samples (457 nm)): 1.1 µM | IC50 ([2]; without irradiation, read-out: IC50 non-irradiated samples): 17.5 µM
